According to patent US6592545B1, “Particle delivery” (PowderJect Research Limited, priority 1994, dated 2003):
Structures can show the parent of a compound that is named as a salt.

Tests used:
[1] = Serum testosterone pharmacokinetics after subcutaneous or OralJect transmucosal delivery (radioimmunoassay); assay type: in vivo, New Zealand White rabbit; settings: for Cmax: mean
Method: Testosterone (Sigma Chemicals) was milled and sieved into a particle size range (approximately 50-100 μm) suitable for transmucosal delivery from a needleless syringe using standard stainless steel mesh sieves. Female New Zealand White rabbit subjects weighing between 2.2-2.8 kg were used and allowed food and water ad libitum. The rabbits (n=8) were randomly assigned to one of two treatment groups. The first treatment group received testosterone (2.0 mg dose) as a suspension in 35% polyvinylpyrrolidone C-30 in water (6 mg/g testosterone concentration) via subcutaneous injection. The second treatment group received testosterone (2.0 mg dose of testosterone particles ranging from 53-75 μm) as two 1.0 mg transmucosal administrations from an OralJect™ needleless syringe device abutted against the cheek mucosa.
Whole blood (1.0 ml) was taken at times 0, 0.5, 1, 2, 4, 6, 8, 12, 24 and 48 hours, the serum aspirated and assayed for testosterone by radioimmunoassay (DPC). The OralJect™ device is a prototype device of the present invention that is actuated by helium at 40 bar.

[2] = oral administration, degraded by the liver; cited from earlier work
oral mucosa [3] = assay: Visual assessment of oral mucosa delivery sites for damage or irritation after needleless syringe delivery; assay type: in vivo, human; settings: single 3 mg dose, particles 38-53 μm, 14 subjects, 24-48 hours after delivery
Method: A randomized, double-blind, negatively controlled study was carried out in normal, healthy human subjects as follows. Initially, a single 3 mg dose of lignocaine HCL particles sized between 38 and 53 μm was delivered from a needleless syringe constructed in accordance with the invention. The lignocaine was delivered to the oral mucosa adjacent to the number 12 and 22 lateral incisors in 14 trial subjects. The delivery sites were then visually assessed for evidence of damage or irritation to the mucosal tissues.

[4] = in vivo
Method: In a second study, a single 3.0 mg dose of lignocaine HCL particles (as above) was delivered using a needleless syringe, and a single 0.2 mL dose of 2% lignocaine HCL was delivered via needle-syringe injection. Pain associated with the administration of each treatment was scored in all 14 subjects using a 100 mm visual analogue scale immediately after each treatment, wherein 100% indicates a painful treatment, and 0% indicates a pain-free treatment. The needleless syringe employed in the study was operated using 40 bar helium driving gas to expel anaesthetic particles from a flexible, eversible dome-shaped membrane comprised of a 400 μm, 6 mm polyurethane film.

oral mucosa [5] = assay: Local anaesthesia: pain response to probing oral mucosa with back of 27G dental needle, visual analogue scale; assay type: in vivo, human; settings: 3.0 mg particles via needleless syringe; probe of treated area 1 minute post delivery; untreated 55.6%, placebo 30.6%
Method: A randomized, double-blind study was then carried out as follows. Treatments were given to 14 subjects over the course of three visits. The treatments provided to the subjects in each visit were either a single 3.0 mg dose of Lignocaine HCL particles from the above-described needleless syringe device, or 0.0 mg (as a blinded negative control). Accordingly, treatments provided over the course of the three visits were either: two actual (3.0 mg) doses of the anaesthetic particles and one placebo; or two placebos and one actual (3.0 mg) dose. Pain stimulus was provided by probing oral mucosa with the back of a 27G dental needle, wherein the probe sequence was a probe on an untreated area of the mucosa, and then a probe on the treated area of the mucosa 1 minute post delivery. Again, the pain associated with the probe of the untreated and treated areas was scored on visual analogue scales using the above scoring methods immediately after each probe.

SMILES	Cmax ([1]; OralJect transmucosal (cheek mucosa), 2 x 1.0 mg particles 53-75 μm, rabbit serum) [nmol/I]	second minor peak of serum testosterone, time post administration ([1]; OralJect transmucosal, possible depot effect) [h]	bioavailability ([1]; female, New Zealand White, rabbit, serum, 2 mg, OralJect transmucosal, 2.0 mg, rabbit, read-out: % BA (% bioavailability)) [%]	Tmax ([1]; female, New Zealand White, rabbit, serum, OralJect transmucosal, 2.0 mg, all animals) [min]	Cmax ([1]; subcutaneous injection, 2.0 mg suspension in 35% polyvinylpyrrolidone C-30, rabbit serum) [nmol/I]	Cmax range ([1]; subcutaneous injection, 2.0 mg, rabbit serum)	first pass degradation [2] [%]	tissue reaction at delivery sites (oral mucosa [3])	pain associated with administration, mean visual analogue score [4] [%]	mean pain response score to probe (oral mucosa [5]) [%]
C[C@]12CC[C@H]3[C@@H](CCC4=CC(=O)CC[C@@]43C)[C@@H]1CC[C@@H]2O [testosterone, Testosterone]	25.5 ± 3.5	12	~48.3	30	34.8 ± 6.9	26.9 − 55.2 nmol/I	98			
CCN(CC)CC(=O)Nc1c(C)cccc1C [lignocaine HCL]								no evidence of any tissue reaction	49.9	15.0
